In ChEMBL document CHEMBL4706644, “Structure-Activity Relationship Studies of Pyrimidine-4-Carboxamides as Inhibitors of N-Acylphosphatidylethanolamine Phospholipase D” (J Med Chem, 2021):

What was measured:
[1] = target: T1, N-acyl-phosphatidylethanolamine-hydrolyzing phospholipase D (Homo sapiens, UniProt Q6IQ20); assay: Inhibition of full length human NAPE-PLD expressed in HEK293T cell lysate using PED6 as substrate preincubated for 30 mins followed by substrate addition and measured at 2 mins interval for 1 hr by tecan-plate reader analysis; type: subcellular
[2] = target: T2, N-acyl-phosphatidylethanolamine-hydrolyzing phospholipase D (Mus musculus, UniProt Q8BH82); assay: Inhibition of full length mouse NAPE-PLD expressed in HEK293T cell lysate using PED6 as substrate preincubated for 30 mins followed by substrate addition and measured at 2 mins interval for 1 hr by tecan-plate reader analysis; type: subcellular
T2 sequence (Q8BH82 whole entry): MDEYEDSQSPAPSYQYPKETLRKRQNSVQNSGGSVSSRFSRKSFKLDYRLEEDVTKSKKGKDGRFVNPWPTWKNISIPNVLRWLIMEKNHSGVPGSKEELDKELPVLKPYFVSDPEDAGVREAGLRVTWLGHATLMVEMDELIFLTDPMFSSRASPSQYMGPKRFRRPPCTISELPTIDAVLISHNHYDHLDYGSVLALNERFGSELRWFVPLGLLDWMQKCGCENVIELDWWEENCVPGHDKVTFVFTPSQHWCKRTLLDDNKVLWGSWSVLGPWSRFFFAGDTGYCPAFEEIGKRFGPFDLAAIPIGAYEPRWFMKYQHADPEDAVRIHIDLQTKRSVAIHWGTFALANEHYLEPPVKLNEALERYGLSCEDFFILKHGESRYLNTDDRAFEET

[3] = target: T1, N-acyl-phosphatidylethanolamine-hydrolyzing phospholipase D; assay: Inhibition of full length human NAPE-PLD expressed in HEK293 cells using radiolabelled diether-NAPE as substrate incubated for 20 mins by liquid scintillation counter analysis

T1 sequence (Q6IQ20 whole entry): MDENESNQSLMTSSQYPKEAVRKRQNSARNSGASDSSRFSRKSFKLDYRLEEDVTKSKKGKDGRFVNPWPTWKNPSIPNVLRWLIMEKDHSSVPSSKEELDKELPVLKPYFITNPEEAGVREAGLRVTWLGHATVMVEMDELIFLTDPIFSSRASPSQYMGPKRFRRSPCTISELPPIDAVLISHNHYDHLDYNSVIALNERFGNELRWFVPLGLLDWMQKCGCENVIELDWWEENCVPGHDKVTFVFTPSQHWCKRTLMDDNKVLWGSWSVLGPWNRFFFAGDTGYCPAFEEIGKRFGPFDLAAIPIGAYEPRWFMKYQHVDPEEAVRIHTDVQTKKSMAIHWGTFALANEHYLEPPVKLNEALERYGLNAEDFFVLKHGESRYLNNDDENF

Row | Structure (SMILES) | IC50 [1] [µM] | IC50 [2] [µM] | IC50 [3] [µM]
1 | CN(CCc1ccccc1)c1nc(C(=O)NCc2nccs2)cc(N2CCOCC2)n1 | 32.4 |  | 
2 | O=C(NCC1CC1)c1cc(N2CCOCC2)nc(NCc2ccccc2)n1 | 22.9 |  | 
3 | CNC(=O)c1cc(N2CCOCC2)nc(N(C)CCc2ccccc2)n1 | 13.5 |  | 
4 | CN(CCc1ccccc1)c1nc(C(N)=O)cc(N2CCOCC2)n1 | 17.8 |  | 
5 | O=C(NCC1CC1)c1cc(N2CCOCC2)ncn1 | > 50.1 |  | 
6 | O=C(NCC1CC1)c1cc(N2CCOCC2)nc(Cl)n1 | > 50.1 |  | 
7 | O=C(NCC1CC1)c1cc(N2CC[C@@H](O)C2)nc(N2CCC[C@H](c3ccccc3)C2)n1 |  | 1.26 | 
8 | O=C(NCC1CC1)c1cc(N2CCOCC2)nc(N(CCc2ccccc2)c2ccccc2)n1 | 1.12 |  | 
9 | CN(CCc1ccccc1)c1nc(C(=O)NCC2CC2)cc(N2CCS(=O)(=O)CC2)n1 | > 50.1 |  | 
10 | O=C(NCC1CC1)c1cc(N2CCOCC2)nc(N2CCC[C@@H](c3ccccc3)C2)n1 |  | 0.575 | 
11 | CN(CCc1ccccc1)c1nc(C(=O)NCc2ccccc2)cc(N2CCOCC2)n1 | 23.4 |  | 
12 | CN(CCc1ccccc1)c1nc(-c2ncc(C3CC3)[nH]2)cc(N2CCOCC2)n1 | 40.7 |  | 
13 | O=C(NCC1CC1)c1cc(N2CC[C@H](O)C2)nc(N2CCC[C@H](c3ccccc3)C2)n1 |  | 1.82 | 
14 | CNC(=O)CNC(=O)c1cc(N2CCOCC2)nc(N(C)CCc2ccccc2)n1 | 17 |  | 
15 | O=C(NCC1CC1)c1cc(N2CC[C@@H](O)C2)nc(N2CCC[C@@H](c3ccccc3)C2)n1 |  | 0.38 | 
16 | CN(CCc1ccccc1)c1nc(NC(=O)CC2CC2)cc(N2CCOCC2)n1 | 7.59 |  | 
17 | CN(CCc1ccccc1)c1nc(C(=O)NCC(F)(F)F)cc(N2CCOCC2)n1 | 33.1 |  | 

Row | Structure (SMILES) | IC50 [1] [µM] | IC50 [2] [µM] | IC50 [3] [µM]
18 | CN(CCc1ccccc1)c1nc(C(=O)NCC2CC2)nc(N2CCOCC2)n1 | > 50.1 |  | 
19 | CN(CC1CC1)C(=O)c1cc(N2CCOCC2)nc(N(C)CCc2ccccc2)n1 | > 50.1 |  | 
20 | O=C(NCC1CC1)c1cc(N2CCOCC2)nc(N(CCc2ccccc2)Cc2ccccc2)n1 | 0.741 |  | 
21 | CN(CCc1ccccc1)c1nc(C(=O)NCC(C)(C)C)cc(N2CCOCC2)n1 | 21.4 |  | 
22 | CCCCCCNC(=O)c1cc(N2CCOCC2)nc(N(C)CCc2ccccc2)n1 | 34.7 |  | 
23 | CN(CCc1ccccc1)c1nc(C(=O)NCC2CC2)cc(N2CCN(C(=O)OCc3ccccc3)CC2)n1 | 12.9 |  | 
24 | O=C(NCC1CC1)c1cc(N2CCS(=O)(=O)CC2)nc(N2CCC[C@@H](c3ccccc3)C2)n1 | 17.4 | 9.55 | 
25 | CN(CCc1ccccc1)c1nc(C(=O)NCc2ccc(-c3ccccc3)cc2)cc(N2CCOCC2)n1 | > 50.1 |  | 
26 | CN(CCc1ccccc1)c1nc(C(=O)O)cc(N2CCOCC2)n1 | > 50.1 |  | 
27 | CN(C)c1cc(C(=O)NCC2CC2)nc(N2CCC[C@@H](c3ccccc3)C2)n1 |  | 0.389 | 
28 | CCCCCCCCCCCCCC(=O)NCCNP(=O)(O)OCC(COC(=O)CCCCC)OC(=O)CCCCC (stereo unspecified) |  |  | 10
29 | CN(CCc1ccccc1)c1nc(C(=O)NCC2CC2)cc(N2CCOCC2)n1 | 0.813 | 3.31 | 
30 | O=C(NCC1CC1)c1cc(N2CC[C@H](O)C2)nc(N2CCC[C@@H](c3ccccc3)C2)n1 |  | 0.447 | 
31 | COCCNC(=O)c1cc(N2CCOCC2)nc(N(C)CCc2ccccc2)n1 | 11 |  | 
32 | CN(CCc1ccccc1)c1nc(C(=O)NCC#N)cc(N2CCOCC2)n1 | 30.9 |  | 
33 | CN(CCc1ccccc1)c1nc(C(=O)NCC(=O)O)cc(N2CCOCC2)n1 | > 50.1 |  | 
34 | O=C(NCC1CC1)c1cc(N2CCOCC2)nc(N2CCCCC2CC2CCCCC2)n1 (racemic) | 25.1 |  | 
